Assay [1] has as its target T1, KDM2B (FBXL10) (Homo sapiens, UniProt Q8NHM5).
T1 sequence (Q8NHM5 1-650): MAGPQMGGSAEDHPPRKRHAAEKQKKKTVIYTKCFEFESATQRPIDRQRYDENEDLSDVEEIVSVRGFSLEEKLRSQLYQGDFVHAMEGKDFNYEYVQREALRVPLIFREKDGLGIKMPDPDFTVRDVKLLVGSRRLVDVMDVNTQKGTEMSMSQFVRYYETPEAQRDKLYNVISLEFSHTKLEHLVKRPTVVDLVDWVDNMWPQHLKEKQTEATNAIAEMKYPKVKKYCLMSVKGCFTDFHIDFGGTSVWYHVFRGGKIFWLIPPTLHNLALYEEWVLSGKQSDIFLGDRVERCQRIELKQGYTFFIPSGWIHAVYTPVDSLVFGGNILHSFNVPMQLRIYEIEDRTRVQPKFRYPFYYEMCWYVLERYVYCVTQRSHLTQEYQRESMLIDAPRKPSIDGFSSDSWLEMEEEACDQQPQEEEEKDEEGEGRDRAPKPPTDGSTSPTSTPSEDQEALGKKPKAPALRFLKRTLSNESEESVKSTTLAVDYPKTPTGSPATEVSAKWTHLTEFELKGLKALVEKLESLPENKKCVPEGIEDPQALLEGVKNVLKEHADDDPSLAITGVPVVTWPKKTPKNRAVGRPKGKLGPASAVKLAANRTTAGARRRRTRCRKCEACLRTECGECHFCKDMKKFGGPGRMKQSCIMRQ
Description: Histone lysine demethylase AlphaLISA assay, KDM2B. Format: biochemical. To be noted: read-out: KDM2B HDME Inhibition IC50. Put shortly:
(§1)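 Steps: enzyme equilibrated 10 min in buffer; compounds in 3% DMSO solution added, 10 min; substrate mix added (peptide, 25 μM L-Asc, 10 μM α-KG), room temperature; acceptor beads, then streptavidin donor beads, dark incubations; plate read.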
In general terms: Alpha assays give light when donor and acceptor beads are brought close together.

The target of assay [2] is T2, KDM4C (JMJD2C) (Homo sapiens, UniProt Q9H3R0).
T2 sequence (Q9H3R0 1-349): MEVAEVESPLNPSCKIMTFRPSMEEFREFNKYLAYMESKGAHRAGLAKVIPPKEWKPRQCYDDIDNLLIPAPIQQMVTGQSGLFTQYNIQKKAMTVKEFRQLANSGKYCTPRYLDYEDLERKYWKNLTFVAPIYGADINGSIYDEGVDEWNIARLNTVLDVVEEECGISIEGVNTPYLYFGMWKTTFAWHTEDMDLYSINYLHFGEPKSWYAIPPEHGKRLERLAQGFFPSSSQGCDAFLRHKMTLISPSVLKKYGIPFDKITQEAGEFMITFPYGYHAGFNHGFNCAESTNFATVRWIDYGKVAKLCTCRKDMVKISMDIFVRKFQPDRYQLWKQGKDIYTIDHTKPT
Description: Histone lysine demethylase AlphaLISA assay, KDM4C. It counts as biochemical. As to conditions: read-out: KDM4C HDME Inhibition IC50. In a few lines: as §1

The target of assay [3] is T3, KDM5B (PLU-1) (Homo sapiens, UniProt Q9UGL1).
T3 sequence (Q9UGL1 1-809): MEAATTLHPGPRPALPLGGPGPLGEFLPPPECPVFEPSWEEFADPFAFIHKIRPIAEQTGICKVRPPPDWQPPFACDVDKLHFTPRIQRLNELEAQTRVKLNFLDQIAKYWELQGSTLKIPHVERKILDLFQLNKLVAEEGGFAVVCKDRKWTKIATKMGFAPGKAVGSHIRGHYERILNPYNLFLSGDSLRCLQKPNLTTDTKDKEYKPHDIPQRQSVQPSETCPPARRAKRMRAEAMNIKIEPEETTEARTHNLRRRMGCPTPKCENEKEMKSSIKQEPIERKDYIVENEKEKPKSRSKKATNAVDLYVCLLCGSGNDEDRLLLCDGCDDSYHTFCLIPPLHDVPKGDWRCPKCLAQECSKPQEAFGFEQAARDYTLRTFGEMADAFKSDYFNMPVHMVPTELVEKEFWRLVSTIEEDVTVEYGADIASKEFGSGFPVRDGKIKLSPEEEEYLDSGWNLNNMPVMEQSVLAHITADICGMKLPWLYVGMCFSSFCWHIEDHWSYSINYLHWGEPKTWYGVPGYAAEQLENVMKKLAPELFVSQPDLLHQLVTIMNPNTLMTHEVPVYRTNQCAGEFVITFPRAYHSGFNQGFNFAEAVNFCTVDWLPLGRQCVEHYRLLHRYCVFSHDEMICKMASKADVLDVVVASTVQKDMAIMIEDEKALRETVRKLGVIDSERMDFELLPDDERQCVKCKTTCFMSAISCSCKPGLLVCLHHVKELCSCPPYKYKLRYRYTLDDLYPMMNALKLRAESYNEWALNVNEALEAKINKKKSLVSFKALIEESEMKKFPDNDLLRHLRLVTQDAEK
Description: Histone lysine demethylase AlphaLISA assay, KDM5B. As to conditions: read-out: KDM5B HDME Inhibition IC50. It counts as biochemical. Put shortly:
as §1

Assay [4] concerns the target KDM6A (UTX) (Homo sapiens, UniProt O15550). Put plainly: Histone lysine demethylase AlphaLISA assay, KDM6A. Format: biochemical. As to conditions: read-out: KDM6A HDME Inhibition IC50. In a few lines:
as §1

For assay [5], the system named is MCF7 cells. Description: Cell proliferation assay MCF7. It counts as cell-based. As to conditions: MCF7 human breast cancer cells; 120 hours; ATPlite 1 Step. In a few lines: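 Cells grown 24 h in DMEM GlutaMAX/10% FBS, then exposed to compounds in duplicate (≤0.5% DMSO) for 120 h. Viability read as ATP luminescence (ATPlite 1 Step). Seeding set to reach ~90% confluence at harvest.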
For orientation: In ATP-based viability assays light output follows the ATP content of the culture.

Assay [6] concerns KARPAS620. Description: Cell proliferation assay KARPAS620. Format: cell-based. As to conditions: Homo sapiens, Karpas-620; KARPAS620, Plasma cell leukemia; method of Example 5. As for the experimental part:
(§2) MCF7 cells were seeded in multi well plates at a density optimized to give approximately 90% confluent cells at the time of harvest. Cells were incubated for 24 hours before addition of compound. Compounds were diluted in complete medium and added to the plates in duplicates. The final concentration of DMSO was maximum 0.5%. Complete medium used was DMEM with GlutaMAX containing 10% FBS and pen/strep.
(§3) 120 hours after addition of compounds, the plates were harvested and analyzed by ATPlite 1 Step (Perkin Elmer, cat no 6016739) according to the manufactures recommendation.
(§4) The assays were performed by the method of Example 5 by seeding the relevant cell line at a density optimized to give approximately 90% confluent cells at the time of harvest.

Assay [7] has as its system MOLP8. Put plainly: Cell proliferation assay MOLP8. Format: cell-based. As to conditions: Homo sapiens, MOLP-8; MOLP8, Myeloma; method of Example 5. As for the experimental part:
as §2, §3, §4

pEC50, pIC50: −log10 of the molar value.

Chain of KDM6A (UTX) (O15550 919-1401): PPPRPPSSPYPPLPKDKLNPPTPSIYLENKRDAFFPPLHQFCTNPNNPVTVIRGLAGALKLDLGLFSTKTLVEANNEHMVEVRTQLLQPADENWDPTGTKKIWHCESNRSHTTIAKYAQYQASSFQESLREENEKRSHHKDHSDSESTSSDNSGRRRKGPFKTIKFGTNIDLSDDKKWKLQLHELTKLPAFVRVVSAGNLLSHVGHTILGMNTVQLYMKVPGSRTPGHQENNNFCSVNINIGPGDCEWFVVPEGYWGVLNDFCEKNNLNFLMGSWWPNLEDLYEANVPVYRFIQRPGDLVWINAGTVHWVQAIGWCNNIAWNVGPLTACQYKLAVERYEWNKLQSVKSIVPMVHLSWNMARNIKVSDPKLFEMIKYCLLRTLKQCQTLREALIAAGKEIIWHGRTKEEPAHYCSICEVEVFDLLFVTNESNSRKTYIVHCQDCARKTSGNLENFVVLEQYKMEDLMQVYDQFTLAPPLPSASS

In the case of `CCN(CCN(C)C)C(=O)CNCc1cc(/C=N/CC(CO)C2CCCCC2)ccn1` (stereo not shown) [Compound 81, 2-[({4-[[(2-cyclohexyl-3-hydroxypropyl)-imino]methyl]pyridin-2-yl}methyl)-amino]-N-[2-(dimethylamino)-ethyl]-N-ethylacetamide], the pIC50 – broadly, the IC50 on a negative log10 scale, so that one unit is a factor of ten – is less than 5.60 in assay [1], 5.60 to 6.60 in assay [2], more than 6.60 in assay [3] and less than 5.60 in assay [4]. The pEC50 in assay [5], in assay [6] and in assay [7] was more than 6.60 each time.

The record behind these values is US9650339B2, “Inhibitors of histone demethylases” (Gilead Sciences, Inc., priority 2013, dated 2017).
